Data on one compound can be found in patent US20100222334A1 (priority 2007, published 2010).

The conditions of data set [1]: administered as immediate release tablet formulation (Diovan); cited from earlier work.
The conditions of data set [2]: human, in vivo. How it is done: In order to determine the relative bioavailability, an open-label, single dose, two-period, crossover study is conducted in 24 healthy subjects.
A short description of data set [3]: Bioavailability of new 80 mg valsartan pediatric tablet relative to 80 mg commercial tablet, single-dose crossover. To be noted: in the same study. The procedure:
The study is conducted in 24 healthy subjects using an open-label, single-dose, two period, randomized, crossover study design.

For the compound `CCCCC(=O)N(Cc1ccc(-c2ccccc2-c2nnn[nH]2)cc1)[C@H](C(=O)O)C(C)C` [Valsartan, (S)—N-(1-carboxy-2-methylprop-1-yl)-N-pentanoyl-N-[2′-(1H-tetrazol-5-yl)biphenyl-4-ylmethyl]amine], the bioavailability result in data set [1] is recorded as “around 30%”. In addition, the “intersubject variability (CV %) for the Cmax and AUCτ” value in data set [2] was 24-40%. For the same compound, the “variability of valsartan PK” value in data set [3] is on record as 30-50%.
